The nature of data set [1]: in vitro. The note with it: human, microsomes.
Data set [2] can be described thus: in vitro. The note with it: CD1, mouse, microsomes.
In a further data set the test system is A-375. Put plainly: cells. Type of data set: functional, cell-based. The settings on record: Homo sapiens, A-375, 96 h.
The next data set is described as follows: physchem. The note with it: buffer, pH 7.4.
Data set [3] in a line: in vivo. The note with it: BALB/c, mouse, po, 5 mg/kg.
The nature of data set [4]: in vivo. The settings on record: BALB/c, mouse, po, 5 mg/kg. This is another data set of the same source.
A short description of data set [5]: in vivo. The note with it: BALB/c, mouse, po, 5 mg/kg. The source holds these as a separate data set.
The nature of data set [6]: in vivo. The note with it: BALB/c, mouse, iv, 0.5 mg/kg.
The nature of data set [7]: in vivo. The settings on record: BALB/c, mouse, iv, 0.5 mg/kg. This is another data set of the same source.
A short description of data set [8]: in vivo. The note with it: rat, po, 1 mg/kg.
The nature of data set [9]: in vivo. The settings on record: Beagle, dog, po, 0.5 mg/kg.
Data set [10] can be described thus: in vivo. The settings on record: rat, po, 1 mg/kg. This is another data set of the same source.
Data set [11] can be described thus: in vivo. The note with it: rat, po, 50 mg/kg.
Data set [12] in a line: in vivo. The settings on record: Beagle, dog, po, 0.5 mg/kg. The source holds these as a separate data set.
The nature of data set [13]: in vivo. The settings on record: Beagle, dog, po, 0.5 mg/kg. The source holds these as a separate data set.
A short description of data set [14]: in vivo. The note with it: rat, po, 50 mg/kg. This is another data set of the same source.
The nature of data set [15]: in vivo. The note with it: rat, po, 100 mg/kg.
Data set [16] is described as follows: in vivo. The settings on record: rat, iv, 0.5 mg/kg.
Data set [17] in a line: in vivo. The settings on record: rat, po, 50 mg/kg. The source holds these as a separate data set.
Data set [18] in a line: in vivo. The note with it: rat, po, 50 mg/kg. This is another data set of the same source.
Data set [19] in a line: in vivo. The settings on record: Beagle, dog, iv.
Data set [20] is described as follows: in vivo. The settings on record: rat, po, 100 mg/kg. This is another data set of the same source.
Data set [21] in a line: in vivo. The note with it: rat, iv, 0.5 mg/kg. The source holds these as a separate data set.
The nature of data set [22]: in vivo. The note with it: rat, po, 1 mg/kg. This is another data set of the same source.
Data set [23] is described as follows: in vivo. The settings on record: rat, po, 100 mg/kg. This is another data set of the same source.
Data set [24] is described as follows: in vivo. The settings on record: Beagle, dog, po, 0.5 mg/kg. The source holds these as a separate data set.
A short description of data set [25]: in vivo. The settings on record: Beagle, dog, po, 0.5 mg/kg. This is another data set of the same source.
Data set [26] is described as follows: in vivo. The settings on record: rat, po, 100 mg/kg. This is another data set of the same source.
Data set [27] can be described thus: in vivo. The note with it: rat, po, 1 mg/kg. This is another data set of the same source.
Data set [28] can be described thus: in vivo. The settings on record: Beagle, dog, iv. This is another data set of the same source.
The nature of data set [29]: in vivo. The note with it: rat, po, 1 mg/kg. This is another data set of the same source.
Data set [30] is described as follows: in vivo. The settings on record: rat, po, 100 mg/kg. This is another data set of the same source.
Data set [31] in a line: in vivo. The settings on record: rat, po, 50 mg/kg. This is another data set of the same source.
In another data set the test system is COLO 205. As to the kind of experiment: cells. Type of data set: functional, cell-based. The note with it: Homo sapiens, COLO 205, 96 h.
Another data set addresses CYP3A4 (Homo sapiens, UniProt P08684). Put plainly: in vitro. The note with it: recombinant enzyme.
The target of data set [32] is Mitogen-activated protein kinase 1 (Homo sapiens) (UniProt P28482). The settings on record: dose 1.0 nM, time 30.0 min.

Each structure is given as a SMILES string.

Mitogen-activated protein kinase 1 (Homo sapiens), sequence (P28482 whole entry): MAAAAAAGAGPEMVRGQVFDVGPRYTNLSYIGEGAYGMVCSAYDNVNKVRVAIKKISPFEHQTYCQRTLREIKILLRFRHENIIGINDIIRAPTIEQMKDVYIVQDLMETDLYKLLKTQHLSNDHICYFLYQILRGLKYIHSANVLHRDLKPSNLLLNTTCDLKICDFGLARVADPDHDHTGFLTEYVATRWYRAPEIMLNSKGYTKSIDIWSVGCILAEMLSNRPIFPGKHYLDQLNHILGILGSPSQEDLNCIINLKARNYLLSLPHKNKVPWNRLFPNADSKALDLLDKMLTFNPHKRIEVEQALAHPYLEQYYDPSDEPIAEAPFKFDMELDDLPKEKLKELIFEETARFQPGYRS
CYP3A4, sequence (P08684 whole entry): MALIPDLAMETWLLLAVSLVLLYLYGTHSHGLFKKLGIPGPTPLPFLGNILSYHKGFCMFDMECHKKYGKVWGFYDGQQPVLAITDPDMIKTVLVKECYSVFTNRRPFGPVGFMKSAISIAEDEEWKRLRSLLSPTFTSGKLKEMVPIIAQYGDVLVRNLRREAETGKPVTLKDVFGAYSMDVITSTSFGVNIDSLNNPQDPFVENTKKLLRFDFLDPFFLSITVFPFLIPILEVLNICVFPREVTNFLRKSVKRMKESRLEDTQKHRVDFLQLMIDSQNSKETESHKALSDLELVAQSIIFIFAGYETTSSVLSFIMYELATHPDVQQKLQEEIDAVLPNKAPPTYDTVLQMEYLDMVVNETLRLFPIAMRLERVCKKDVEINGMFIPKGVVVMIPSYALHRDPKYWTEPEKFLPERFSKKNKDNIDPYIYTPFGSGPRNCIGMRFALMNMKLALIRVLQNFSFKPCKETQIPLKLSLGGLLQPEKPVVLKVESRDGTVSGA

Broadly, the half-life is the time needed for the level to fall by half in the phase considered. As a reminder, the IC50 is the concentration needed to halve the response being measured. Read a low IC50 as inhibition by little substance. The chromatographic logD is a lipophilicity value derived from retention on a column. High values mean higher lipophilicity, low ones lower lipophilicity. As a reminder, the bioavailability is the share of a dose that reaches the circulation, judged against a reference dose that is usually intravenous. Broadly, the AUC is concentration integrated over time. The term Vd denotes a proportionality between amount in the body and measured concentration, not a real space. The clearance is a measure of how efficiently the substance is removed, as volume per time. The low end stands for a low capacity for elimination, the high end for a high capacity for elimination. For the compound `COc1cc(F)cc([C@@H](CO)NC(=O)CN2Cc3ccc(-c4nc(NC5CCOCC5)ncc4Cl)cc3C2=O)c1`, the half-life at 40 min, 1 µM in the data set “in vitro [1]” worked out at 0.517 h; in “in vitro [2]” it was 1.43 h. This compound also came in with an IC50 in the data set with A-375 of 4 nM. For the same compound, the chromatographic logD in “physchem” turned out to be 3.3. The compound further gave a half-life at 24 h in “in vivo [3]” of 1.5 h. In “in vivo [4]”, this compound yielded a bioavailability at 24 h of 10%. The same compound gave an AUC at 24 h in “in vivo [5]” of 150 ng·h/mL. This compound had a Vd at 24 h in “in vivo [6]” of 1.4 L/kg. This compound showed a clearance at 24 h in the data set “in vivo [7]” of 54 mL/min/kg.

A word on the Cmax: it is the peak of the concentration-time curve. The term Tmax denotes the time from dosing to the highest level. For `COc1cc(F)cc([C@@H](CO)NC(=O)[C@@H](C)N2Cc3ccc(-c4nc(NC5CCOCC5)ncc4Cl)cc3C2=O)c1` [BEROTERKIB ANHYDROUS], the Cmax at 24 h is 25.8 ng/mL in “in vivo [8]”, 3660 ng/mL in “in vivo [13]”, 15700 ng/mL in the data set “in vivo [30]” and 2740 ng/mL in the data set “in vivo [31]”. Further, the Tmax at 24 h in the data set “in vivo [9]” was 1 h; in “in vivo [10]”, 0.5 h; in “in vivo [18]”, 2 h; in the data set “in vivo [23]”, 2 h. Besides, the half-life at 24 h in the data set “in vivo [11]” was 2.8 h; in the data set “in vivo [15]” it was 2.5 h; in the data set “in vivo [3]”, 2.9 h; in “in vivo [24]” it was 1.1 h; in the data set “in vivo [29]”, 1.5 h. Further, the half-life at 40 min, 1 µM in “in vitro [1]” worked out at 0.55 h; in the data set “in vitro [2]”, 0.767 h. The bioavailability at 24 h in “in vivo [12]” was 91%; in “in vivo [17]”, 35%; in “in vivo [20]” it was above 100%; in the data set “in vivo [22]” it was 6.1%; in the data set “in vivo [4]”, 42%. Moreover, the AUC at 24 h in “in vivo [14]” was found to be 17500 ng·h/mL; in the data set “in vivo [5]”, 1600 ng·h/mL; in the data set “in vivo [25]”, 12300 ng·h/mL; in “in vivo [26]”, 118000 ng·h/mL; in “in vivo [27]” it was 57.9 ng·h/mL. Also, the figures for the volume of distribution (Vd) at 24 h in the data set “in vivo [16]”, in “in vivo [6]” and in “in vivo [28]” were 0.77 L/kg, 0.68 L/kg and 0.071 L/kg, respectively. Besides, the chromatographic logD in the data set “physchem” came to 3.8. The figures for the clearance at 24 h in “in vivo [19]”, in the data set “in vivo [21]” and in the data set “in vivo [7]” were 0.56 mL/min/kg, 18 mL/min/kg and 22 mL/min/kg, respectively.

As a reminder, the inhibition is the percentage by which the read-out fell short of the control. The low end stands for a weak effect, the high end for a strong effect. With `COc1cc(F)cc([C@@H](CO)NC(=O)[C@@H](C)N2Cc3ccc(-c4nc(NC5COC5)ncc4Cl)cc3C2=O)c1`, the IC50 in the data set with COLO 205 stood at 12 nM. The half-life at 40 min, 1 µM was determined as 0.483 h in the data set “in vitro [1]” and 0.833 h at CYP3A4. In “physchem”, this compound showed a chromatographic logD of 3.3. In addition, the half-life at 24 h in the data set “in vivo [3]” is 1.7 h. The compound further yielded an inhibition in data set [32] of 49%. Also, in the data set “in vivo [4]”, the bioavailability at 24 h turned out to be 30%. The compound further came in with an AUC at 24 h in “in vivo [5]” of 2650 ng·h/mL. Further, the Vd at 24 h in “in vivo [6]” worked out at 0.71 L/kg. In “in vivo [7]”, the clearance at 24 h was determined as 9.4 mL/min/kg.
